According to patent publication US4358444A, “2,4-Dioxacyclohexanone derivative” (Dr. L. Zambeletti S.p.A., priority 1981, dated 1982):
Where two headings read alike, the source gives them in different places.

Experiments:
[1] = type: in vivo; conditions: for distribution / route of excretion/elimination: metabolite
[2] = tested on: yeast induced hypertermia; test: Yeast induced hypertermia test (antipyretic activity); type: in vivo, rat
Description: This activity has been investigated by means of the yeast induced hypertermia test in the rat, taking again acetylsalycilic acid, administered at equimolecular dosages, as the comparison substance.

gastric mucosa = test: Gastrolesive activity after oral administration; type: in vivo, rats; conditions: for gastric tolerability / gastrolesive effect (in words): oral
Description: MR 693 and acetylsalycilic acid as the comparison substance were administered by oral route to rats fastened from at least 18 hours.
After six hours from the beginning of the experiment, the rats were sacrificed and the stomachs were opened and examined in order to verify the presence of lesions on the gastric mucosa.

[3] = tested on: carrageenin induced edema; test: Carrageenin induced edema test (antinflammatory activity); type: in vivo, rats; conditions: for reduction of the edema / antiinflammatory action compared with acetylsalicylic acid (in words): oral, equimolecular dosages
Description: The antinflammatory properties of MR 693 have been investigated by means of the carrageenin induced edema test in rats, by administering the compound of the invention by oral route and using acetylsalycilic acid as the comparison substance, at equimolecular dosages.

[4] = tested on: citric acid aerosol induced cough; test: Citric acid aerosol induced cough test (antitussive activity); conditions: for antitussive activity compared with codeine (in words): 500 mg/kg oral vs codeine 25 mg/kg oral, general statement in b2
Acute toxicity in mice = conditions: in vivo, po; mouse, os; read-out: DL50 (the source's name)
Description: (§1) Acute toxicity tests have been carried out in mice rats, by administering the compound of the invention by oral and intraperitoneal route.

rats [5] = test: Chronic toxicity in rats, oral, 24 weeks; type: in vivo
Description: (§2) Chronic toxicity studies have been carried out on rats, administered by oral route with MR 693 for 24 consecutive weeks, and dogs, administered by oral and rectal route with the compound of the invention again for 24 weeks.
(§3) The parameters which have been taken into consideration are as follows:
(§4) biochemical examination of the blood glycosuria, proteinuria, haematuria, albuminuria
(§5) weight and hystological control of the principal organs;

esterase = test: In vitro metabolism (enzymatic hydrolysis); type: in vitro ADME
Description: Studies have been performed both in vitro and in vivo.

rats [6] = test: Theratogenesis studies in rats; type: in vivo; conditions: oral, all along the pregnancy
Description: (§6) Theratogenesis studies have been carried out on rats and rabbits, which have been treated by oral route with MR 693 all along the duration of the pregnancy. […]
(§7) number of pregnant females […]
(§8) initial body weight/end body weight (of the mothers) […]
(§9) average number of lived foetuses total number of dead foetuses total number of re-absorptions average weight of lived foetuses

dogs [7] = test: Subacute toxicity in dogs, oral, four weeks; type: in vivo; conditions: four consecutive weeks
Description: (§10) Subacute toxicity studies have been carried out on rats and dogs, by administering MR 693 by oral route for four consecutive weeks.
as §3
(§11) glycosuria, proteinuria, albuminuria and haematuria
(§12) weight of the principal organs

[8] = Toxicity, overall statement (acute, subacute and chronic); type: in vivo
Description: as §1, §10, §2

rats [9] = test: Subacute toxicity in rats, oral, four weeks; type: in vivo; conditions: four consecutive weeks
Description: as §10, §3, §11, §12

Acute toxicity in rats = conditions: in vivo, rat, read-out: DL50 (the source's name)
Description: as §1

dogs [10] = test: Chronic toxicity in dogs, oral and rectal, 24 weeks; type: in vivo
Description: as §2, §3, §4, §5

rabbits = test: Theratogenesis studies in rabbits; type: in vivo; conditions: oral, all along the pregnancy
Description: as §6, §7, §8, §9

[11] = 250 mg/kg os (equimolecular dosage)
[12] = listed as 3-(2-methoxy-phenoxy)-3-methyl-benzo-2,4-dioxacyclohexanone
[13] = 400 mg/kg os (equimolecular dosage)

## COc1ccccc1O [guaiacol]
[1]; assumed from lung concentrations and pulmonary tropism of guaiacol
  pulmonary tropism: marked pulmonary tropism
[1]; in vivo, after oral administration of MR 693
  absorption: mainly absorbed by pre-systemic route
[1]; after administration of MR 693
  distribution: enters the lungs through the lymphatic vessels
  route of excretion/elimination: eliminated by respiratory route

## CC(=O)Oc1ccccc1C(=O)O [Acetylsalycilic acid, acetylsalicylic acid, reference compound]
[2]; [11]
  % Inhibition (yeast induced hypertermia): 103%
Gastric mucosa; 250 mg/kg os, six hours (equimolecular dosage)
  Average diameter of the lesions: 3.7 ± 0.8 mm
[3]; [11]
  % Inhibition of the edema: 33%
[1]; in vivo
  concentration observed in the lungs compared with plasma and liver: higher than those observed in the plasma and the liver
[1]; after administration of MR 693
  distribution: enter the systemic circulation

## COc1ccccc1OC1(C)OC(=O)c2ccccc2O1 (stereo not drawn) [MR 693, 3-(2-methoxy-phenoxy)-3-methyl-benzo-2,4-dioxacyclohexanone]
[4]; 500 mg/kg oral
  reduction over the controls of the number of cough-strokes (in words): marked reduction
[4]
  antitussive activity compared with codeine (in words): better than that displayed, under the same conditions, by an oral dosage of 25 mg/kg of codeine
[4]; [12]
  antitussive activity compared with codeine (in words): higher than that of codeine
[4]; 500 mg/kg os
  % Inhibition of cough-strokes: 84.3%
[4]; Cavia porcellus, ip, read-out: % Inhibition of cough-strokes
  inhibition at 100 mg/kg: 100%
Acute toxicity in mice
  LD50: > 3000 mg/kg
[2]; [13]
  % Inhibition (yeast induced hypertermia): 86%
[2]; oral, equimolecular dosages, listed as 3-(2-methoxy-phenoxy)-3-methyl-benzo-2,4-dioxacyclohexanone
  antipyretic activity compared with acetylsalicylic acid (in words): only slightly lower than that displayed, again, by acetylsalicylic acid
Rats [5]; 24 consecutive weeks
  alterations or anatomo-pathological states (chronic toxicity): no alterations or particularly significant anatomo-pathological states
Rats [5]; 24 weeks
  alteration of the mucosae of the gastro-intestinal tract: did not show any alteration of the mucosae
esterase
  enzymatic hydrolysis (metabolites): enzymatically hydrolyzed to acetylsalycilic acid and guaiacol
  organs displaying the highest esterase activity: the lungs and the kidneys
Rats [6]
  theratogenesis: alterations: no alteration
  theratogenesis: number of litters alive: no variation of the number of litters alive
  theratogenesis: somatic or skeletal malformations: neither somatic not skeletal malformations have been observed
Gastric mucosa; 100 mg/kg os, six hours
  Average diameter of the lesions: 0 mm
Gastric mucosa; 400 mg/kg os, six hours (equimolecular dosage)
  Average diameter of the lesions: 0 mm
Gastric mucosa
  gastric tolerability / gastrolesive effect (in words): perfectly tolerated at gastric level
Gastric mucosa; [12]
  gastric tolerability / gastrolesive effect (in words): complete absence of any gastrolesive effect
Dogs [7]
  alterations or malformations (subacute toxicity): in no case alterations or malformations ascribable to the treatment
[8]; [12]
  toxicity (in words): almost negligible toxicity (both acute, subacute and chronic)
[8]; listed as mr 693
  toxicity (in words): very little toxic compound
Rats [9]
  alterations or malformations (subacute toxicity): in no case alterations or malformations ascribable to the treatment
[3]; [13]
  % Inhibition of the edema: 30%
[3]
  reduction of the edema / antiinflammatory action compared with acetylsalicylic acid (in words): marked reduction of the edema
[3]; [12]
  reduction of the edema / antiinflammatory action compared with acetylsalicylic acid (in words): practically is the same as that possessed by acetylsalicylic acid
Acute toxicity in rats; ip, i.p.
  LD50: 1750 mg/kg
Acute toxicity in rats; po, os
  LD50: > 3000 mg/kg
Dogs [10]
  alteration of the mucosae of the gastro-intestinal tract: did not show any alteration of the mucosae
  alterations or anatomo-pathological states (chronic toxicity): no alterations or particularly significant anatomo-pathological states
[1]; in vivo
  pulmonary tropism: relative better pulmonary tropism
[1]; in vivo, po
  absorption: absorbed as such for the major part
  metabolites in vivo: hydrolyzed to acetylsalycilic acid, salycilic acid and guaiacol
rabbits
  theratogenesis: alterations: no alteration
  theratogenesis: number of litters alive: no variation of the number of litters alive
  theratogenesis: somatic or skeletal malformations: neither somatic not skeletal malformations have been observed

## O=C(O)c1ccccc1O [salycilic acid]
[1]; after administration of MR 693
  concentration observed in the lungs compared with plasma and liver: higher than those observed in the plasma and the liver
  distribution: enter the systemic circulation
  route of excretion/elimination: excreted by urinary route

## COc1ccc2c3c1O[C@H]1[C@@H](O)C=C[C@H]4[C@@H](C2)N(C)CC[C@@]341 [Codeine, codeine, reference compound]
[4]; 12.5 mg/kg i.p.
  % Inhibition of cough-strokes: 93.7%
[4]; 25 mg/kg os
  % Inhibition of cough-strokes: 76.7%
[4]; Cavia porcellus, ip, read-out: % Inhibition of cough-strokes, 12.5 mg/kg i.p.
  inhibition at 12.5 mg/kg: 93%
